Molecular target: T1, 2,5-DKG reductase (Corynebacterium sp., UniProt P06632)
T1 construct: made in house; host or cells: Corynebacterium sp; ATCC 31090 (natural producer, native enzyme purified from cell paste, not recombinant)
Assay: 2,5-DKG reductase kinetic / substrate specificity assay with purified enzyme
Type: biochemical, Corynebacterium sp. ATCC 31090
Conditions: not given
Source text: The following assay conditions were used to determine kinetic parameters: […]

T1 sequence (P06632 whole entry): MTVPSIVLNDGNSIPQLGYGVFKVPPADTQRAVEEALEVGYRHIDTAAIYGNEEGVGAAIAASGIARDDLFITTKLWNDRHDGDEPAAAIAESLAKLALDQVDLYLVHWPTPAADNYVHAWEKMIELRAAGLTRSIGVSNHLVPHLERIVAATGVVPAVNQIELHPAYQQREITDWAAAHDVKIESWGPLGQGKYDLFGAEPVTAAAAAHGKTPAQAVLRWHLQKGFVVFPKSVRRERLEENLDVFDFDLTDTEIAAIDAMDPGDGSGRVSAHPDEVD

Row | Compound | Alteration of enzyme activity in the presence of the substance
1 | Nc1ncnc2c1ncn2[C@@H]1O[C@H](COP(=O)(O)OP(=O)(O)O)[C@@H](O)[C@H]1O [ADP] | No alteration of activity
2 | Nc1ncnc2c1ncn2[C@@H]1O[C@H](COP(=O)(O)OP(=O)(O)OP(=O)(O)O)[C@@H](O)[C@H]1O [ATP] | No alteration of activity
3 | [Ca+2] [Ca^++] | No alteration of activity
4 | O=C(O)CN(CCN(CC(=O)O)CC(=O)O)CC(=O)O [EDTA] | No alteration of activity
5 | [Mn+2] [MN^++] | No alteration of activity
6 | [Mg+2] [Mg^++] | No alteration of activity
7 | [Zn+2] [Zn^++] | No alteration of activity
8 | N[C@@H](CS)C(=O)O [cysteine] | No alteration of activity

Same assay, conditions: substrate specificity and cofactor requirements

Row | Compound | Activity of the enzyme with the substance as substrate or cofactor
9 | O=C(O)C(=O)[C@@H](O)[C@H](O)[C@H](O)CO [2-KDG, 2-keto-D-gluconic acid] | No activity
10 | O=C(O)C(=O)[C@@H](O)[C@H](O)[C@@H](O)CO [2-KLG, 2-keto-L-gulonic acid] | No activity
11 | O=C(CO)[C@@H](O)[C@H](O)[C@@H](O)C(=O)O [5-KDG, 5-keto-D-gluconic acid] | No activity
12 | O=C(O)[C@H](O)[C@@H](O)[C@H](O)[C@H](O)CO [D-gluconic acid] | No activity
13 | NC(=O)C1=CN([C@@H]2O[C@H](COP(=O)(O)OP(=O)(O)OC[C@H]3O[C@@H](n4cnc5c(N)ncnc54)[C@H](O)[C@@H]3O)[C@@H](O)[C@H]2O)C=CC1 [NADH] | No activity

— US4757012A, “Ascorbic acid intermediates and process enzymes” (Genentech, Inc., priority 1984, dated 1988)
